The supplement of paper PMC10331698
± gives the standard deviation of the averaged measurements.

Experiments:
Assay in all cases: level (log10 ratio to DMSO vehicle control); higher = higher biomarker level / cell amount than vehicle control
[1] = compound: CN(C(=O)C(F)(F)C(F)(F)C(F)(F)F)[Si](C)(C)C [N-Methyl-N-trimethylsilylheptafluorobutyramide] (in DMSO)
Method: (§1)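 BioMAP Diversity Plus panel of 12 human primary cell co-culture systems (3C, 4H, LPS, SAg, BT, BF4T, BE3C, CASM3C, HDF3CGF, KF3CT, MyoF, Mphg). Compounds were added 1 h before stimulation and left for 24 h (MyoF 48 h; BT 72 h for soluble read-outs or 6 d for IgG). Biomarkers were read by ELISA, cytotoxicity by SRB, PBMC viability and proliferation by Alamar Blue. Each well value was divided by the mean of 8 DMSO control wells on the same plate and log10 transformed; duplicate blinded samples were tested at 4 concentrations.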

[2] = compound: CO[Si](C)(CCC(F)(F)C(F)(F)C(F)(F)C(F)(F)C(F)(F)C(F)(F)F)OC [Dimethoxymethyl((perfluorohexyl)ethyl)silane] (in DMSO)
Method: as §1

Octafluoroadipic acid = compound: O=C(O)C(F)(F)C(F)(F)C(F)(F)C(F)(F)C(=O)O [Octafluoroadipic acid] (in DMSO)
Method: as §1

Perfluoroundecanoic acid = compound: O=C(O)C(F)(F)C(F)(F)C(F)(F)C(F)(F)C(F)(F)C(F)(F)C(F)(F)C(F)(F)C(F)(F)C(F)(F)F [Perfluoroundecanoic acid] (in DMSO); conditions: 6700 nM
Method: as §1

Perfluorononanoic acid = compound: O=C(O)C(F)(F)C(F)(F)C(F)(F)C(F)(F)C(F)(F)C(F)(F)C(F)(F)C(F)(F)F [Perfluorononanoic acid] (in DMSO)
Method: as §1

[3] = compound: O=C(O)C(F)(OC(F)(F)C(F)(F)C(F)(F)F)C(F)(F)F [Ammonium perfluoro-2-methyl-3-oxahexanoate] (in Water)
Method: as §1

[4] = compound: OCC(F)(F)OC(F)(F)C(F)(F)OC(F)(F)C(F)(F)OC(F)(F)CO [1H,1H,11H,11H-Perfluorotetraethylene glycol] (in DMSO)
Method: as §1

[5] = compound: OCCC(F)(F)C(F)(F)C(F)(F)C(F)(F)F [4:2 Fluorotelomer alcohol] (in DMSO)
Method: as §1

Test System	level (log10) ([1]; 6700 nM)	level (log10) ([1]; 20000 nM)	level (log10) ([1]; 60000 nM)	level (log10) ([2]; 6700 nM)	level (log10) ([2]; 20000 nM)	level (log10) (Octafluoroadipic acid; 6700 nM)	level (log10) (Octafluoroadipic acid; 20000 nM)	level (log10) (Octafluoroadipic acid; 60000 nM)	level (log10) (Perfluoroundecanoic acid)	level (log10) (Perfluorononanoic acid; 6700 nM)	level (log10) (Perfluorononanoic acid; 20000 nM)	level (log10) ([3]; 6700 nM)	level (log10) ([3]; 20000 nM)	level (log10) ([3]; 60000 nM)	level (log10) ([4]; 6700 nM)	level (log10) ([4]; 20000 nM)	level (log10) ([4]; 60000 nM)	level (log10) ([5]; 6700 nM)	level (log10) ([5]; 20000 nM)	level (log10) ([5]; 60000 nM)
CASM3C:HLA-DR	-0.0175 ± 0.0021	-0.0105 ± 0.012	0.013 ± 0.011	-0.012 ± 0.021	-0.0005 ± 0.0035	-0.0035 ± 0.019	-0.0095 ± 0.032	-0.0025 ± 0.0078	-0.007 ± 0.017	-0.0105 ± 0.066	-0.02 ± 0.0028	0.0195 ± 0.054	0.01 ± 0.059	0.004 ± 0.0071	-0.002 ± 0.0099	-0.0115 ± 0.0021	-0.005 ± 0.0085	-0.0195 ± 0.049	-0.022 ± 0.028	0.002 ± 0.037
CASM3C:IL-6	-0.0165 ± 0.0035	-0.0105 ± 0.0035	0.0035 ± 0.049	-0.0225 ± 0.00071	0.013 ± 0.051	-0.0225 ± 0.0092	-0.0115 ± 0.0064	0.013 ± 0.061	0.0025 ± 0.0092	-0.016 ± 0.035	-0.016 ± 0.024	0.0075 ± 0.005	-0.052 ± 0.042	-0.0375 ± 0.047	-0.0195 ± 0.021	-0.0305 ± 0.026	-0.013 ± 0.035	-0.0195 ± 0.005	-0.023 ± 0.0099	-0.016 ± 0.054
CASM3C:LDLR	-0.006 ± 0.0099	-0.0055 ± 0.005	0.0255 ± 0.035	-0.0135 ± 0.00071	0.0165 ± 0.029	-0.0215 ± 0.023	-0.008 ± 0.018	0.029 ± 0.047	-0.0265 ± 0.016	-0.05 ± 0.02	-0.0415 ± 0.011	-0.061 ± 0.057	-0.032 ± 0.04	-0.0545 ± 0.021	-0.019 ± 0.0028	-0.025 ± 0.0042	0.0225 ± 0.022	-0.0485 ± 0.026	-0.034 ± 0.011	-0.0455 ± 0.037
CASM3C:M-CSF	-0.011 ± 0.0028	-0.018 ± 0.0042	0.0145 ± 0.036	-0.012 ± 0.013	0.0045 ± 0.043	-0.039 ± 0.02	-0.024 ± 0.042	0.0155 ± 0.1	0.019 ± 0.0085	0.045 ± 0.0099	0.0435 ± 0.028	-0.049 ± 0.016	-0.0405 ± 0.0092	-0.0405 ± 0.022	-0.0255 ± 0.026	-0.035 ± 0.02	-0.0345 ± 0.011	-0.085 ± 0.027	-0.048 ± 0.0028	0.0105 ± 0.0035
CASM3C:PAI-I	0.0015 ± 0.021	-0.003 ± 0.0071	0.0005 ± 0.0078	-0.0125 ± 0.022	-0.0005 ± 0.011	0.001 ± 0.0057	-0.0015 ± 0.00071	0.002 ± 0.013	0.005 ± 0.0057	0.0015 ± 0.011	-0.008 ± 0.017	-0.007 ± 0.0085	-0.0005 ± 0.0092	-0.0025 ± 0.013	-0.0035 ± 0.012	0.0005 ± 0.0035	0.007 ± 0.0014	-0.0085 ± 0.011	0.001 ± 0.017	-0.0015 ± 0.021
CASM3C:Proliferation	-0.017 ± 0.03	-0.0095 ± 0.00071	0.039 ± 0.033	0.0455 ± 0.0078	0.041 ± 0.061	-0.066 ± 0.0071	-0.004 ± 0.073	0.014 ± 0.051	0.0285 ± 0.011	0.0505 ± 0.059	0.021 ± 0.052	-0.07 ± 0.085	-0.095 ± 0.02	-0.104 ± 0.065	-0.039 ± 0.079	-0.039 ± 0.062	-0.12 ± 0.03	0.0185 ± 0.03	0.0335 ± 0.044	0.0185 ± 0.028
CASM3C:SRB	-0.001 ± 0.0042	0.0085 ± 0.012	-0.002 ± 0.011	-0.006 ± 0.0042	-0.011 ± 0.0028	-0.006 ± 0.0057	-0.0025 ± 0.005	-0.006 ± 0.0057	0.0025 ± 0.0035	-0.0005 ± 0.0064	0.002	-0.007 ± 0.0057	-0.008 ± 0.0014	-0.0105 ± 0.0064	-0.0025 ± 0.0064	-0.008 ± 0.0057	-0.0275 ± 0.012	0.0045 ± 0.0035	-0.008	0.0015 ± 0.0092
